According to ChEMBL document CHEMBL1201862, “PubChem BioAssay data set” (2004):
The source made the active and inactive calls. Cut-off read from the data, not from the text of the source, for most assays here: actives have a measured IC50 and inactives only a lower limit.

Experiments:
HEK293 = assay: inhibitors of LMP1-driven NF-kB reporter, dose response, cell-based, HEK293, luciferase, cherry-pick (AID 588343); format: functional; conditions: Homo sapiens
INS1 = assay: beta cell apoptosis inhibitors, cytokine rescue, dose response, luminescence, retest (AID 449756); format: functional, cell-based; conditions: Rattus norvegicus;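 note: cell death triggered by IL-1 beta plus TNF-alpha plus IFN-gamma mixture; protective hits raise ATP signal compared with cytokine alone wells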
[1] = microbe, parasite or virus in culture; format: functional; conditions: Mycobacterium tuberculosis
[2] = target: Latent membrane protein 1 (Human herpesvirus 4 (strain B95-8), UniProt P03230); assay: TES1-eGFP NF-kB reporter inhibition versus Tet-On dsRED, dose response, selectivity assay for LMP1 NF-kB inhibitor project, imaging, HEK293T, dual-color eGFP/dsRED, cherry-picks (AID 588398); format: functional, cell-based
Latent membrane protein 1, sequence (P03230 whole entry): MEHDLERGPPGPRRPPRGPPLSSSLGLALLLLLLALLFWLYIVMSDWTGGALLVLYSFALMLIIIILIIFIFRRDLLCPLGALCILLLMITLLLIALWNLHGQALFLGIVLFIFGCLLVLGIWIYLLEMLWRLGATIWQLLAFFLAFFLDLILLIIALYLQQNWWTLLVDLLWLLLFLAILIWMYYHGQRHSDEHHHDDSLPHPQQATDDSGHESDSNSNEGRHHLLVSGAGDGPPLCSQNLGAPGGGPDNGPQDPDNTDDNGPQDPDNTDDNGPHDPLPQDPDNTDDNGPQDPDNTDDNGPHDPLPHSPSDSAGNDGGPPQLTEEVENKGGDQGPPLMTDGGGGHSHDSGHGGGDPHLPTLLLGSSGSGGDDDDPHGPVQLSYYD

[3] = cytotoxicity toward NIH3T3 fibroblasts, dose response, counter-screen, cell-based, ATP luminescence, mouse fibroblasts (AID 2010); format: functional;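 note: cells exposed to compound for about 90 hours before reading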
[4] = inhibitors of intracellular T. cruzi replication, confirmation, NIH3T3 host cells, beta-gal luminescence (AID 2044); format: functional, cell-based;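 note: intracellular parasites grown in NIH/3T3 mouse fibroblasts as host cells; luminescent beta-galactosidase reporter signal from transgenic T. cruzi replicating inside host cells; inhibitors lower the luminescence signal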
[5] = target: T1, Sentrin-specific protease 6 (Homo sapiens, UniProt Q9GZR1); assay: SENP6 protease inhibitors, SAR follow-up, biochemical, luminescence, set 2 (AID 588598); format: functional
T1 sequence (Q9GZR1 whole entry): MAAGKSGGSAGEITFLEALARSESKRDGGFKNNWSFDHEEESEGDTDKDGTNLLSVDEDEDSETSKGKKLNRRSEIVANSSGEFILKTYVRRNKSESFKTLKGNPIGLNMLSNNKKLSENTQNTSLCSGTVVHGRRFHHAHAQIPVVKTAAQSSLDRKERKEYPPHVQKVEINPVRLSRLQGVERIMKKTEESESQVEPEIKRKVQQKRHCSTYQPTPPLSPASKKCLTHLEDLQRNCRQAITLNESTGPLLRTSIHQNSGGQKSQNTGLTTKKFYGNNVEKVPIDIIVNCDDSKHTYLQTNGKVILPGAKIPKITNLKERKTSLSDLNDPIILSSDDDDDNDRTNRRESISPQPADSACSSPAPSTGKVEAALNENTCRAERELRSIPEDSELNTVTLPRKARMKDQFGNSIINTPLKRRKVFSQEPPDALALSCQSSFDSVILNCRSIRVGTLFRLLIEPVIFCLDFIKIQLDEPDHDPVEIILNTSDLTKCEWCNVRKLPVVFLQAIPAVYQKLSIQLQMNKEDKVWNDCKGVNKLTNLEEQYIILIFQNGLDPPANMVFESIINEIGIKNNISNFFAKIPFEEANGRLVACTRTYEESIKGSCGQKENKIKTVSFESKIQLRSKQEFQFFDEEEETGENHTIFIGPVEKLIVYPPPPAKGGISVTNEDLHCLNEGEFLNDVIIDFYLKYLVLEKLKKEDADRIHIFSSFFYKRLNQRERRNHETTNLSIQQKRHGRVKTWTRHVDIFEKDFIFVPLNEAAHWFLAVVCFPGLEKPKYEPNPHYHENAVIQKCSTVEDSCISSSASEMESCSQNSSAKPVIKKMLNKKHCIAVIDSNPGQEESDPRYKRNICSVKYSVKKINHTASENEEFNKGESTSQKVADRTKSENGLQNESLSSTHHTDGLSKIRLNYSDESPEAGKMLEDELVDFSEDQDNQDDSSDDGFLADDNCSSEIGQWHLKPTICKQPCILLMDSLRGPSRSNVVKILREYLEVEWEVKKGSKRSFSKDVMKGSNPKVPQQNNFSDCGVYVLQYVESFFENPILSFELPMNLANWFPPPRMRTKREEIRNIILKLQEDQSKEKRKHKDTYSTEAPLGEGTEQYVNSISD

[6] = target: T2, Sentrin-specific protease 8 (Homo sapiens, UniProt Q96LD8); assay: SENP8 protease inhibitors, SAR follow-up, biochemical, luminescence, set 2 (AID 588601); format: functional
T2 sequence (Q96LD8 whole entry): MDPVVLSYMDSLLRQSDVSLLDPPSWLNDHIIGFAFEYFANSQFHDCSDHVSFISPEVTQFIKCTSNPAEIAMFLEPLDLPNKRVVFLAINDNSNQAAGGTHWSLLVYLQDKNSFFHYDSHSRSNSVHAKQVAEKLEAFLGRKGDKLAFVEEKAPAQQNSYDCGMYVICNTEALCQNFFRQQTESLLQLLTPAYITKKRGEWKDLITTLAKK

[7] = target: T3, Sentrin-specific protease 7 (Homo sapiens, UniProt Q9BQF6); assay: SENP7 protease inhibitors, SAR follow-up, biochemical, luminescence, set 2 (AID 588600); format: functional
T3 sequence (Q9BQF6 whole entry): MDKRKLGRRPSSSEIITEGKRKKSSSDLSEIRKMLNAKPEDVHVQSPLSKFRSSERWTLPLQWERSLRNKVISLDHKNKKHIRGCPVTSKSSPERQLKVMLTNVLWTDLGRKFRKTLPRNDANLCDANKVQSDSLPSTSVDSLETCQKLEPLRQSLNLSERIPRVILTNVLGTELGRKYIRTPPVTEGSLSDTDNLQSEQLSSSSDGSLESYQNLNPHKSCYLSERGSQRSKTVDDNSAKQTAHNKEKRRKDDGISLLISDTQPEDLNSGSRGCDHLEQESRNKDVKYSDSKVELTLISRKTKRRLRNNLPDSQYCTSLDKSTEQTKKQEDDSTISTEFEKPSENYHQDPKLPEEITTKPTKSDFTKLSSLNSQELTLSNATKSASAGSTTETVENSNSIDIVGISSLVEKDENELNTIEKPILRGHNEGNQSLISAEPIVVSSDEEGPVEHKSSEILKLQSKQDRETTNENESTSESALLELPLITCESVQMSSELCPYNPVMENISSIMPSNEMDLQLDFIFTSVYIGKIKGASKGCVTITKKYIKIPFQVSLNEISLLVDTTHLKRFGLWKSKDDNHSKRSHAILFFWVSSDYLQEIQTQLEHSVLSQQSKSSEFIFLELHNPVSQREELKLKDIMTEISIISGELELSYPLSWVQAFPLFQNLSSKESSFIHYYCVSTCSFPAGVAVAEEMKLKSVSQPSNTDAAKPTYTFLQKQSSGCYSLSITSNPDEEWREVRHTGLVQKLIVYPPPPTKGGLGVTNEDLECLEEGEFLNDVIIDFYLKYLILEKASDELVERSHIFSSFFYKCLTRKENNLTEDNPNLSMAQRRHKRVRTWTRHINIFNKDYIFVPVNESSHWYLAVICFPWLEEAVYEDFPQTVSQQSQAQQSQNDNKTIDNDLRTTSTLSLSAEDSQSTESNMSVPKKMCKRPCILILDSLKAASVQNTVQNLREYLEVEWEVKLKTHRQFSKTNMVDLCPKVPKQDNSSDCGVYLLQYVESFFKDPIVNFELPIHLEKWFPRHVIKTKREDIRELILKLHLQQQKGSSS

Caspase-3 [8] = target: T4, Caspase-3 (Homo sapiens, UniProt P42574); assay: caspase-3 inhibitors as off-family protease, SAR follow-up, selectivity assay for SENP protease inhibitor project, biochemical, luminescence, set 2 (AID 588599); format: functional
T4 sequence (P42574 whole entry): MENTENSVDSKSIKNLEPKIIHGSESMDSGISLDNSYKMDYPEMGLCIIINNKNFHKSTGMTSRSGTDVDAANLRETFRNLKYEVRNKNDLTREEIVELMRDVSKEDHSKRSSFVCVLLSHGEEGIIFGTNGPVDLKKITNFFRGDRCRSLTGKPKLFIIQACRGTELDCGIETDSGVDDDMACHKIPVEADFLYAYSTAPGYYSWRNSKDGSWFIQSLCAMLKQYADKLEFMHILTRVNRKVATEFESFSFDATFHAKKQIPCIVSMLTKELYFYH

[9] = target: T2, Sentrin-specific protease 8; assay: SENP8 protease inhibitors, SAR follow-up, biochemical, luminescence (AID 504501); format: functional
[10] = target: T3, Sentrin-specific protease 7; assay: SENP7 protease inhibitors, SAR follow-up, biochemical, luminescence (AID 504497); format: functional
[11] = target: T1, Sentrin-specific protease 6; assay: SAR Analysis of small molecule inhibitors of Sentrin-specific protease 6 (SENP6) using a Luminescent assay. [Related pubchem assays (depositor defined):AID2582, AID2599]; format: functional
Caspase-3 [12] = target: T4, Caspase-3; assay: SAR Analysis of small molecule inhibitors of Sentrin-specific proteases (SENPs) using a Caspase-3 Selectivity assay. [Related pubchem assays (depositor defined):AID2540, AID2599, AID434973, AID489001]; format: functional

## Clc1ccc(SCc2cc(N3CCOCC3)nc(-c3ccccn3)n2)cc1
HEK293
  AC50: 12.1 µM (active)
INS1
  AC50: 2.57 µM (active)
[1]
  CC50: 19.5 µM (active)
[2]
  AC50: 10.5 µM (active)
[3]
  EC50: > 60 µM (not active)
[4]
  EC50: 1.51 µM (active)

## Cc1ccc(S(=O)(=O)NCCC(=O)N/N=C\c2c[nH]c3ccccc23)cc1
[5]
  IC50: > 99 µM (inactive)
[6]
  IC50: > 99 µM (inactive)
[7]
  IC50: > 99 µM (inactive)
Caspase-3 [8]
  IC50: > 99 µM (inactive)

## COc1cc(Cc2nccc3cc(OC)c(OC)cc23)c(C(=O)c2ccccc2)cc1OC
[9]
  IC50: > 99 µM (inactive)
[10]
  IC50: > 99 µM (inactive)
[11]
  IC50: 50.9 µM (active)
Caspase-3 [12]
  IC50: 71.6 µM (active)
